Measurements taken from patent US8772199B2, “Herbicidal compositions for tolerant or resistant maize crops” (Bayer Intellectual Property GmbH, priority 1998, dated 2014).
Where a name gives a salt, the structure may show the parent alone.

How the values were obtained:
Assay in all cases: Field trial with maize, herbicidal action
Type in all cases: in vivo
[1] = test system: AGRRE; conditions: application 2-4-leaf stage, scoring 3 weeks after application
Procedure: (§1) Transgenic maize plants with a resistance to one or more herbicides (A) together with typical weed plants were grown in the open on 2×5 m plots under natural field conditions; alternatively, weed infestation occurred naturally when the maize plants were grown.
(§2) […] The damage to, and the development of, all aerial parts of the plants was recorded. Scoring was done on the basis of a percentage sale (100% action=all plants destroyed; 50% action=50% of the plants and green parts of the plants destroyed; 0% action=no recognizable effect=like control plot. The mean of the score values of in each case 4 plots was calculated.

[2] = test system: AMARE; conditions: application 2-4-leaf stage, scoring 3 weeks after application
Procedure: as §1, §2

[3] = test system: Cassia obtusifolia; conditions: 400 g of a.s./ha; application 3-leaf stage; scoring 21 days after application
Procedure: as §1, §2

[4] = test system: Digitaria sanguinalis; conditions: application 5-6-leaf stage, scoring 11 days after application
Procedure: as §1, §2

[5] = test system: Echinochloa crus-galli
Procedure: as §1, §2

[6] = test system: Euphorbia heterophylla; conditions: for Herbicidal action (%) against Euphorbia heterophylla: application 6-leaf stage, scoring 44 days after application; for Herbicidal action (%) against EPHHL: application 4-leaf stage, scoring 6 weeks after application
Procedure: as §1, §2

[7] = test system: Fagopyrum esculentum; conditions: for Herbicidal action (%) against Fagopyrum esculentum: application 3- to 4-leaf stage, scoring 24 days after application; for Herbicidal action (%) against Fagopyron esculentum: application 2- to 4-leaf stage, scoring 26 days after application
Procedure: as §1, §2

[8] = test system: Galium aparine; conditions: application 3- to 4-leaf stage, scoring 24 days after application
Procedure: as §1, §2

[9] = test system: Lolium multiflorum; conditions: application 2- to 4-leaf stage, scoring 26 days after application
Procedure: as §1, §2

[10] = test system: Panicum dichotomiflorum; conditions: application 5-6-leaf stage, scoring 11 days after application
Procedure: as §1, §2

[11] = test system: Portulaca oleracea
Procedure: as §1, §2

[12] = test system: SETVI; conditions: application 2-4-leaf stage, scoring 3 weeks after application
Procedure: as §1, §2

[13] = test system: Avena fatua; conditions: application 2- to 4-leaf stage, scoring 28 days after application
Procedure: as §1
(§3) 2, 4, 6 and 8 weeks after the application, the herbicidal activity of the active substances or active substance mixtures was scored visually with reference to the treated plots in comparison to untreated control plots. The damage to, and the development of, all aerial parts of the plants was recorded. Scoring was done on the basis of a percentage sale (100% action=all plants destroyed; 50% action=50% of the plants and green parts of the plants destroyed; 0% action=no recognizable effect=like control plot. The mean of the score values of in each case 4 plots was calculated.

[14] = test system: Brachiaria plantaginea; conditions: application 2-leaf stage, scoring 28 days after application
Procedure: as §1, §3

[15] = test system: Commelina benghalensis; conditions: application 3-leaf stage, scoring 42 days after application
Procedure: as §1, §3

[16] = test system: Convolvulus arvensis; conditions: application 3- to 4-leaf stage, scoring 28 days after application
Procedure: as §1, §3

[17] = test system: Sinapis arvensis; conditions: application 4- to 5-leaf stage, scoring 28 days after application
Procedure: as §1, §3

[18] = test system: Sorghum bicolor; conditions: application 4-leaf stage, scoring 28 days after post-emergence application
Procedure: as §1, §3

[19] = test system: Sorghum halepense; conditions: application 4-leaf stage, scoring 28 days after application
Procedure: as §1, §3

Q: For `CP(=O)(O)CCC(N)C(=O)O` (stereo not drawn) [(A1.2), glufosinate-monoammonium salt], which “Herbicidal action (%) against AGRRE” value ([1]; 200 g of a.s./ha) is on record?
A: The value was 0%.

Q: And the “Herbicidal action (%) against AGRRE” value ([1]; 300 g of a.s./ha)?
A: The value was 0%.

Q: And the “Herbicidal action (%) against AGRRE” value ([1]; 400 g of a.s./ha)?
A: Its value is 11%.

Q: And the “Herbicidal action (%) against AGRRE” value ([1]; 600 g of a.s./ha)?
A: Its value is 15%.

Q: What about the “Herbicidal action (%) against AGRRE” value ([1]; 1000 g of a.s./ha) of the same compound?
A: The value was 74%.

Q: And the “Herbicidal action (%) against AMARE” value ([2]; 200 g of a.s./ha)?
A: The value was 65%.

Q: What about the “Herbicidal action (%) against AMARE” value ([2]; 300 g of a.s./ha) of the same compound?
A: The value was 84%.

Q: What about the “Herbicidal action (%) against AMARE” value ([2]; 400 g of a.s./ha) of the same compound?
A: The value was 82%.

Q: And the “Herbicidal action (%) against AMARE” value ([2]; 600 g of a.s./ha)?
A: Its value is 87%.

Q: And the “Herbicidal action (%) against AMARE” value ([2]; 1000 g of a.s./ha)?
A: Its value is 85%.

Q: And the “Herbicidal action (%) against Cassia obtusifolia” value [3]?
A: Its value is 60%.

Q: And the “Herbicidal action (%) against Digitaria sanguinalis” value ([4]; 200 g of a.s./ha)?
A: The value was 0%.

Q: And the “Herbicidal action (%) against Digitaria sanguinalis” value ([4]; 400 g of a.s./ha)?
A: Its value is 15%.

Q: And the “Herbicidal action (%) against Digitaria sanguinalis” value ([4]; 600 g of a.s./ha)?
A: The value was 30%.

Q: What about the “Herbicidal action (%) against Echinochloa crus-galli” value ([5]; 125 g of a.s./ha, application 3- to 4-leaf stage, scoring 42 days after application) of the same compound?
A: The value was 45%.

Q: And the “Herbicidal action (%) against Echinochloa crus-galli” value ([5]; 125 g of a.s./ha, application 3-leaf stage, scoring 28 days after application)?
A: The value was 25%.

Q: What about the “Herbicidal action (%) against Echinochloa crus-galli” value ([5]; 200 g of a.s./ha, application 3-leaf stage, scoring 21 days after application) of the same compound?
A: Its value is 35%.

Q: What about the “Herbicidal action (%) against Echinochloa crus-galli” value ([5]; 250 g of a.s./ha, application 3- to 4-leaf stage, scoring 42 days after application) of the same compound?
A: The value was 65%.

Q: What about the “Herbicidal action (%) against Echinochloa crus-galli” value ([5]; 250 g of a.s./ha, application 3-leaf stage, scoring 28 days after application) of the same compound?
A: Its value is 45%.

Q: What about the “Herbicidal action (%) against Echinochloa crus-galli” value ([5]; 400 g of a.s./ha, application 3-leaf stage, scoring 21 days after application) of the same compound?
A: The value was 68%.

Q: What about the “Herbicidal action (%) against Echinochloa crus-galli” value ([5]; 500 g of a.s./ha, application 3- to 4-leaf stage, scoring 42 days after application) of the same compound?
A: The value was 78%.

Q: And the “Herbicidal action (%) against Echinochloa crus-galli” value ([5]; 500 g of a.s./ha, application 3-leaf stage, scoring 28 days after application)?
A: The value was 74%.

Q: And the “Herbicidal action (%) against Euphorbia heterophylla” value ([6]; 100 g of a.s./ha)?
A: The value was 37%.

Q: What about the “Herbicidal action (%) against Euphorbia heterophylla” value ([6]; 200 g of a.s./ha) of the same compound?
A: Its value is 50%.

Q: And the “Herbicidal action (%) against EPHHL” value ([6]; 300 g of a.s./ha)?
A: The value was 45%.

Q: What about the “Herbicidal action (%) against Euphorbia heterophylla” value ([6]; 400 g of a.s./ha) of the same compound?
A: The value was 60%.

Q: What about the “Herbicidal action (%) against EPHHL” value ([6]; 600 g of a.s./ha) of the same compound?
A: Its value is 55%.

Q: What about the “Herbicidal action (%) against Fagopyrum esculentum” value ([7]; 125 g of a.s./ha) of the same compound?
A: Its value is 10%.

Q: What about the “Herbicidal action (%) against Fagopyron esculentum” value ([7]; 200 g of a.s./ha) of the same compound?
A: Its value is 10%.

Q: What about the “Herbicidal action (%) against Fagopyrum esculentum” value ([7]; 250 g of a.s./ha) of the same compound?
A: The value was 20%.

Q: What about the “Herbicidal action (%) against Fagopyron esculentum” value ([7]; 330 g of a.s./ha) of the same compound?
A: The value was 20%.

Q: And the “Herbicidal action (%) against Fagopyron esculentum” value ([7]; 500 g of a.s./ha)?
A: The value was 55%.

Q: What about the “Herbicidal action (%) against Fagopyrum esculentum” value ([7]; 500 g of a.s./ha) of the same compound?
A: Its value is 55%.

Q: What about the “Herbicidal action (%) against Galium aparine” value ([8]; 125 g of a.s./ha) of the same compound?
A: The value was 30%.

Q: And the “Herbicidal action (%) against Galium aparine” value ([8]; 250 g of a.s./ha)?
A: The value was 45%.

Q: And the “Herbicidal action (%) against Galium aparine” value ([8]; 500 g of a.s./ha)?
A: The value was 65%.

Q: And the “Herbicidal action (%) against Lolium multiflorum” value ([9]; 200 g of a.s./ha)?
A: The value was 0%.

Q: And the “Herbicidal action (%) against Lolium multiflorum” value ([9]; 330 g of a.s./ha)?
A: Its value is 15%.

Q: What about the “Herbicidal action (%) against Lolium multiflorum” value ([9]; 500 g of a.s./ha) of the same compound?
A: The value was 78%.

Q: And the “Herbicidal action (%) against Panicum dichotomiflorum” value ([10]; 200 g of a.s./ha)?
A: The value was 8%.

Q: What about the “Herbicidal action (%) against Panicum dichotomiflorum” value ([10]; 400 g of a.s./ha) of the same compound?
A: The value was 50%.

Q: What about the “Herbicidal action (%) against Panicum dichotomiflorum” value ([10]; 600 g of a.s./ha) of the same compound?
A: Its value is 92%.

Q: What about the “Herbicidal action (%) against Portulaca oleracea” value ([11]; 250 g of a.s./ha, application 6-leaf stage, scoring 26 days after application) of the same compound?
A: Its value is 35%.

Q: What about the “Herbicidal action (%) against Portulaca oleracea” value ([11]; 300 g of a.s./ha, application 2- to 4-leaf stage, scoring 28 days after application) of the same compound?
A: The value was 43%.

Q: And the “Herbicidal action (%) against Portulaca oleracea” value ([11]; 450 g of a.s./ha, application 2- to 4-leaf stage, scoring 28 days after application)?
A: The value was 50%.

Q: What about the “Herbicidal action (%) against Portulaca oleracea” value ([11]; 500 g of a.s./ha, application 6-leaf stage, scoring 26 days after application) of the same compound?
A: Its value is 60%.

Q: What about the “Herbicidal action (%) against SETVI” value ([12]; 200 g of a.s./ha) of the same compound?
A: The value was 72%.

Q: What about the “Herbicidal action (%) against SETVI” value ([12]; 300 g of a.s./ha) of the same compound?
A: Its value is 72%.

Q: And the “Herbicidal action (%) against SETVI” value ([12]; 400 g of a.s./ha)?
A: Its value is 69%.

Q: What about the “Herbicidal action (%) against SETVI” value ([12]; 600 g of a.s./ha) of the same compound?
A: The value was 69%.

Q: What about the “Herbicidal action (%) against SETVI” value ([12]; 1000 g of a.s./ha) of the same compound?
A: Its value is 74%.

Q: What about the “Herbicidal action (%) against Avena fatua” value ([13]; 300 g of a.s./ha) of the same compound?
A: Its value is 48%.

Q: What about the “Herbicidal action (%) against Avena fatua” value ([13]; 450 g of a.s./ha) of the same compound?
A: Its value is 50%.

Q: What about the “Herbicidal action (%) against Brachiaria plantaginea” value ([14]; 150 g of a.s./ha) of the same compound?
A: Its value is 5%.

Q: And the “Herbicidal action (%) against Brachiaria plantaginea” value ([14]; 300 g of a.s./ha)?
A: Its value is 45%.

Q: And the “Herbicidal action (%) against Brachiaria plantaginea” value ([14]; 600 g of a.s./ha)?
A: The value was 70%.

Q: What about the “Herbicidal action (%) against Commelina benghalensis” value ([15]; 100 g of a.s./ha) of the same compound?
A: Its value is 43%.

Q: What about the “Herbicidal action (%) against Commelina benghalensis” value ([15]; 200 g of a.s./ha) of the same compound?
A: The value was 60.0%.

Q: What about the “Herbicidal action (%) against Commelina benghalensis” value ([15]; 300 g of a.s./ha) of the same compound?
A: The value was 63%.

Q: And the “Herbicidal action (%) against Commelina benghalensis” value ([15]; 600 g of a.s./ha)?
A: Its value is 82%.

Q: And the “Herbicidal action (%) against Convolvulus arvensis” value ([16]; 200 g of a.s./ha)?
A: The value was 0%.

Q: And the “Herbicidal action (%) against Convolvulus arvensis” value ([16]; 400 g of a.s./ha)?
A: Its value is 20%.

Q: And the “Herbicidal action (%) against Sinapis arvensis” value ([17]; 230 g of a.s./ha)?
A: Its value is 45%.

Q: What about the “Herbicidal action (%) against Sinapis arvensis” value ([17]; 350 g of a.s./ha) of the same compound?
A: Its value is 75%.

Q: What about the “Herbicidal action (%) against Sorghum bicolor” value ([18]; 125 g of a.s./ha) of the same compound?
A: The value was 30%.

Q: And the “Herbicidal action (%) against Sorghum bicolor” value ([18]; 250 g of a.s./ha)?
A: The value was 50%.

Q: What about the “Herbicidal action (%) against Sorghum bicolor” value ([18]; 500 g of a.s./ha) of the same compound?
A: Its value is 85%.

Q: And the “Herbicidal action (%) against Sorghum halepense” value ([19]; 300 g of a.s./ha)?
A: The value was 15%.

Q: What about the “Herbicidal action (%) against Sorghum halepense” value ([19]; 500 g of a.s./ha) of the same compound?
A: Its value is 53%.
